Assay results: patent publication US10555919B2, “Melatonin in autoimmune disease” (The Brigham and Women's Hopsital, Inc., priority 2014, dated 2020)

Columns and labels:
Tr1 cells = experiment: In vitro mouse Tr1 cell differentiation; format: cell-based; conditions: agomelatine 20 ng/ml, CGP 52608 20 ng/ml
Experimental: (§1) Naive CD4+ T cells (CD4+CD44loCD62LhiCD25−) were from the spleen and lymph node of C57BL/6 wild-type, MTNR1A−, NFIL3−, REV-ERBα, C/EBPα-deficient or RORα-deficient mice using magnetic beads (CD4+ T cell isolation kit, Miltenyi Biotec). All experiments were started between 7 and 9 am. Cells were activated with plate-bound anti-CD3 (2 μg/ml; 14-0031-86; eBioscience) and anti-CD28 (2 μg/ml; 16-0281-86; eBioscience). Mouse IL-27 (30 ng/ml; 34-8271; Biolegend) was added for the generation of Tr1 cells. IL-6 (30 ng/ml; 406-ML-025; R&D Systems), TGF-β1 (15 ng/ml; 130-095-067; Miltenyi Biotec), anti-IL-4 (2.5 μg/ml; C17.8; Biolegend) and anti-IFN-γ (5 μg/ml; XMG1.2; Biolegend) were added for the generation of Th17 cells. Recombinant mouse IL-23 (30 ng/ml; 1887-ML-010; R&D Systems) was added at day 2. For some experiments IL-6 and […] (10 ng/ml; 401-ML-025; R&D Systems) or TGF-β1 and IL-21 (100 ng/ml; 594-ML-010; R&D Systems) were used in instead for Th17 cell differentiation. IL-12 (30 ng/ml; 419-ML-010; R&D Systems) and anti-IL-4 (2.5 μg/ml; C17.8; Biolegend) were used for the generation of Th1 cells. IL-4 (30 ng/ml; 404-ML-010; R&D Systems) and anti-IFN-γ (5 μg/ml; XMG1.2; Biolegend) was added for the generation of Th2 cells. TGF-β1 (15 ng/ml; 130-095-067; Miltenyi Biotec) was used for the generation of Foxp3+ Tregs. Melatonin (Gador, Argentina), Agomelatin, and CGP-52608 (Sigma-Aldrich) were added at the start of the cultures and at day 2, at a final concentration of 2-20 ng/ml.

[1] = system: murine Th17 cell differentiation; experiment: In vitro mouse Th17 cell differentiation; format: cell-based; conditions: for differentiation of Th17 cells (rorc, IL-17, IL-23 receptor): wild type, melatonin 2 ng/ml, agomelatine 20 ng/ml, ramelteon 10 ng/ml, CGP 52608 20 ng/ml
Experimental: For intracellular cytokine staining, cells were stimulated for 4 h at 37° C. with phorbol 12-myristate 13-acetate (50 ng/ml; Sigma), ionomycin (1 μg/ml; Sigma) and monensin (GolgiStop; 1 μg/ml; BD Biosciences). After being stained for surface markers, cells were fixed and made permeable according to the manufacturer's instructions (BD Biosciences). All antibodies against cytokines were from Biolegend. All experiments were started at the same time (8-9 am). Data were collected with a LSR II or FACSAria (BD Biosciences), then were analyzed with FlowJo software (Treestar).
as §1
(§2) Secreted cytokines were measured in tissue culture supernatants after 72-96 hs by enzyme-linked immunosorbent assay as previously described (Farez et al., 2009).

MT2 melatonin receptor = target: T1, MT2 melatonin receptor (Homo sapiens, UniProt P49286); conditions: nonselective ligand; cited from earlier work
T1 sequence (P49286 1-362): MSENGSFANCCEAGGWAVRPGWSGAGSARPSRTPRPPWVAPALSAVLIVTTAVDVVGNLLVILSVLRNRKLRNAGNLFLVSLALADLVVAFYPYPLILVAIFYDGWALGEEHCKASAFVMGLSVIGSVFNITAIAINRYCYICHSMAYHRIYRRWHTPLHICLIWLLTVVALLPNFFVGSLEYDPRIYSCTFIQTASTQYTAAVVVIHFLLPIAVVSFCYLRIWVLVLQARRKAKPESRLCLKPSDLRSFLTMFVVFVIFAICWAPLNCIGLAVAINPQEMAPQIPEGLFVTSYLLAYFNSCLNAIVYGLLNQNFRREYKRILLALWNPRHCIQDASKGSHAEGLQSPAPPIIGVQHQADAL

[2] = system: human CD4+ T cells activated under Tr1 polarizing conditions; experiment: In vitro human Tr1 differentiation; format: cell-based; conditions: 500 ng/ml
Description: We then studied the effects of melatonin on human CD4^+ T cells. In addition, we also analyzed the effects of agomelatine, which activates melatonin-dependent signaling (Hickie and Rogers, 2011). Based on the effects of melatonin administration on T cells during EAE, we focused our studies on human Th17 and Tr1 cells. Melatonin and agomelatine reduced the production of IL-17, RORC and IL17A expression by human CD4^+ T cells activated under Th17 polarizing conditions (FIGS. 3a-c and FIG. 8), no effect was detected on the differentiation of human Th1 cells (FIGS. 3d-f). Concomitantly, melatonin and agomelatine increased IL10 expression.

human Th1 cells = experiment: In vitro human Th1 differentiation; format: cell-based; conditions: 500 ng/ml; IL-12
Experimental: (§3) In vitro human T cell differentiation. For Th17 differentiation, naive CD45RA+ CD4+ T cells were isolated from PBMCs with magnetic beads (Naive Human CD4+ T Cell Isolation Kit II, Miltenyi Biotec) and seeded at a density of 5×10^5 cells/ml in 24-well plates coated with anti-CD3 and (2 μg/ml) and soluble anti-CD28 and cultured in the presence of the following cytokines IL-1β (25 ng/ml), IL-6 (50 ng/ml), and TGF-β1 (2 ng/ml) and neutralizing antibodies to IFN-g ([…]) and IL-4 (10 microgram/ml). Alternatively, Th17 cells were differentiated by using IL-1β (25 ng/ml), IL-6 (50 ng/ml), and IL-23 (50 ng/ml) and neutralizing antibodies to IFN-g ([…]) and IL-4 (10 microgram/ml). For Th1 differentiation naïve CD4+T cells are cultured in the presence of IL-12 (20 ng/ml) and anti-IL-4 (10 μg/ml).

[3] = system: nr1d1 reporter-transfected HEK293 cells; experiment: nr1d1 promoter luciferase reporter assay; format: cell-based; conditions: nr1d1 promoter controls luciferase expression
Description: The IL-10 promoter reporter and C-Maf and AhR vectors were previously described (Apetoh et al., 2010), vector expressing ROR-α were purchased from PlasmID at Harvard Medical School. Vectors coding for C/EBPα (44627) and Bmal reporter (46824) were purchased from Addgene. The retrovirus used for nfil3 overexpression in T cells was graciously provided by Laura Hooper (UT Southwestern, TX, USA). The retrovirus used for nr1d1 overexpression in T cells was graciously provided by Bart Staels (Institut Pasteur, Lille, France, […]). The nr1d1 promoter reporter was graciously provide by Vincent Laudent (Ecole Normale Supérieure, Lyon, France).
HEK293 cells were grown in DMEM supplemented with 10% FBS and were transfected with FuGENE HD transfection reagent and 2 μg of each plasmids according the manufacturer's instructions (Roche). Firefly and renilla luciferase activity was analyzed 48 h after transfection and 24 h after treatment with a Dual Luciferase Assay kit (Promega).

[4] = system: human CD4+ T cells activated under Th17 polarizing conditions; experiment: In vitro human Th17 differentiation; format: cell-based; conditions: 500 ng/ml
Experimental: as §3, §2

SMILES: C=CCN1C(=O)CS/C1=N/NC(=S)NC [CGP 52608]
- Tr1 cell differentiation (Tr1 cells): boosted
- differentiation of Th17 cells (rorc, IL-17, IL-23 receptor) [1]: boosted

SMILES: CCC(=O)NCC[C@@H]1CCc2ccc3c(c21)CCO3 [ramelteon, (S)—N-[2-(1,6,7,8-tetrahydro-2H-indeno[5,4-b]furan-8-yl)ethyl]propionamide]
- differentiation of Th17 cells (rorc, IL-17, IL-23 receptor) [1]: suppressed

SMILES: CC(=O)NCCc1c(Cc2ccccc2)[nH]c2ccccc12 [Luzindole, N-[2-(2-benzyl-1H-indol-3-yl)ethyl]acetamide]
- higher affinity for the MT2 melatonin receptor (MT2 melatonin receptor): 15- to 25 fold

SMILES: CCOC(=O)N1CCC(CN(Cc2ccc(Cl)cc2)Cc2ccc([N+](=O)[O-])s2)C1 (stereo not drawn) [SR9009]
- differentiation into Th17 cells (RT-PCR) ([1]; SR9009 5 micromolar, 72 hr): suppresses

SMILES: COc1ccc2cccc(CCNC(C)=O)c2c1 [agomelatine, N-[2-(7-methoxynaphthalen-1-yl)ethyl]acetamide]
- IL-10 production [2]: increased
- Tr1 cell differentiation (Tr1 cells): boosted
- differentiation of human Th1 cells (human Th1 cells): no effect
- luciferase activity [3]: decreased
- production of IL-17, RORC and IL17A expression [4]: reduced
- IL10 expression ([4]; Th17 polarizing conditions): increased
- differentiation of Th17 cells (rorc, IL-17, IL-23 receptor) [1]: suppressed
